Assay results: patent US5053561A, “Method of isolating trans-1,1,4,4-tetraalkyl-2-butene-1,4-diols” (BASF Aktiengesellschaft, priority 1989, dated 1991)

Assay: Determination of the distribution coefficients between polar and non-polar phases
Type: physicochemical
Settings: for Distribution coefficient k: 25° C.; for phase in which the isomer accumulates: seen from the distribution coefficients of Table 1
Excerpt: To achieve separation of the cis- and trans-isomers of the alkenediols I which is as complete, efficient and economical as possible, it is necessary, when selecting the solvents for the polar and non-polar phases, to ensure that the quotient of the distribution coefficients ktrans /kcis of the trans- and cis-isomers between the polar and non-polar phases is as large as possible. The distribution coefficient k of the cis- or trans-isomer is defined as the concentration of isomer in the polar phase divided by the concentration of the same isomer in the non-polar phase in the equilibrium state, as illustrated by the following equations (1) and (2): [formula]
2 g of cis- or trans-alkenediol were dissolved, at 25° C., in a mixture of 40 ml of a polar solvent and 40 ml of a non-polar solvent. The mixture was vigorously shaken in a separating funnel for 10 minutes. Following separation of the phases, the solvents were removed by distillation under reduced pressure. The residues were weighed, and the results were used to calculate the distribution coefficients as defined in equations (1) and (2) above (see Table 1 below).

[1] = polar phase water + 2% methanol, non-polar phase toluene
[2] = polar phase water + 10% ethanol, non-polar phase toluene
[3] = polar phase water, non-polar phase cyclohexane
[4] = polar phase water, non-polar phase methyl cyclohexane
[5] = polar phase water, non-polar phase methyl isobutylketone
[6] = polar phase water, non-polar phase methylene chloride
[7] = polar phase water, non-polar phase n-hexane
[8] = polar phase water, non-polar phase toluene

SMILES: CC(C)(O)/C=C\C(C)(C)O [cis, cis-2,5-dimethyl-3-hexene-2,5-diol]
- Distribution coefficient k [1]: 0.39
- Distribution coefficient k [2]: 0.35
- Distribution coefficient k [3]: 0.56
- Distribution coefficient k [4]: 0.61
- Distribution coefficient k [5]: 0.09
- Distribution coefficient k [6]: 0.17
- Distribution coefficient k [7]: 0.76
- Distribution coefficient k [8]: 0.38
- phase in which the isomer accumulates: accumulates in the non-polar phase

SMILES: CC(C)(O)/C=C/C(C)(C)O [trans, trans-2,5-dimethyl-3-hexene-2,5-diol]
- Distribution coefficient k [1]: 62
- Distribution coefficient k [2]: 23
- Distribution coefficient k [3]: 30
- Distribution coefficient k [4]: 52
- Distribution coefficient k [5]: 3.0
- Distribution coefficient k [6]: 7.3
- Distribution coefficient k [7]: 34
- Distribution coefficient k [8]: 25
- phase in which the isomer accumulates: accumulates in the polar phase
